The record followed here is patent publication US10508124B2, “Xanthene protective agent” (priority 2016, dated 2019).

Structures are written as SMILES. Values after ≈ are worked out from the molar mass of the structure shown. Where a SMILES comes first, the peptide text is derived from it.

A short description of the data set: physchem. The class given is physicochemical. As to the method: Peptide used as a model: H-Phe-Leu-NH2
H-Phe-Leu-NH2 and H-Phe-Leu-NH-(TIPS2-Xtn) were synthesized, and each compound was saturated in cyclopentyl methyl ether (CPME) at 25° C. to measure the solubility of each compound.
In regard to H-Phe-Leu-NH2 not bound to a TIPS type protective agent, 0.5 mM of the peptide dissolved in CPME. […] Herein, H-Phe-Leu-NH2 and H-Phe-Leu-NH-(TIPS2-Xtn) have the following structures.

Broadly, the solubility is the concentration that dissolves in the medium under given conditions. A higher solubility goes with much dissolved substance. As to `CC(C)C[C@H](NC(=O)[C@@H](N)Cc1ccccc1)C(N)=O` [H-Phe-Leu-NH2, reference compound] (H-Phe-Leu-NH2), the concentration in solution (solubility) came to 0.5 mM (≈ 0.139 mg/mL).

Turning to `CC(C)C[C@H](NC(=O)[C@@H](N)Cc1ccccc1)C(=O)NC1c2ccc(OCCCCCCCCCCCO[Si](C(C)C)(C(C)C)C(C)C)cc2Oc2cc(OCCCCCCCCCCCO[Si](C(C)C)(C(C)C)C(C)C)ccc21` [H-Phe-Leu-NH-(TIPS2-Xtn)], the solubility amounted to 586 mM (≈ 670 mg/mL) and the “solubility in CPME relative to unprotected H-Phe-Leu-NH2” value is given as not below 1100 times.
